Literature values, collected in patent US20130178495A1, “IBUDILAST FOR RELIEVING NEGATIVE EFFECTS OF MEDICATION OVERUSE HEADACHE” (MediciNova, Inc., priority 2011, published 2013).

How the values were obtained:
[1] = single patient, 20 mg per day of ibudilast
[2] = rat, bilateral indwelling catheters between the meninges and the skull

## CC(C)C(=O)c1c(C(C)C)nn2ccccc12 [ibudilast]
[1]; migraine on the right side continued
  frequency and intensity of migraine: decreased
[1]; no control
  daily headaches: disappeared in one week
[2]
  facial allodynia: blocked and reversed facial allodynia
